Test results from paper PMC4383465 (European journal of pharmacology, 2014).
Several values for one entry are separate records, joined by “and”; a condition that tells them apart may be missing. Equal entries are not always repeated. Marks after values point to notes of the source that are not given here.

Legend:
[1] = target: human cannabinoid type-2 receptors (Homo sapiens, UniProt P34972); assay type: binding; details: for Selectivity CB1/CB2: CB1-Ki value divided CB2-Ki value
[2] = target: cannabinoid type-1 receptors endogenously expressed in Neuro2A cells (Mus musculus, UniProt P47746); assay: Intracellular cAMP levels; assay type: cell-based; details: for CB1R intrinsic activity: modulation of AC-activity compared to full agonist CP-55,940; for effect on intracellular cAMP compared to basal levels: 10 μM
[3] = target: human cannabinoid type-2 receptors stably expressed in CHO-hCB2 cells (Homo sapiens, UniProt P34972); assay: Intracellular cAMP levels; assay type: cell-based; details: for CB2R intrinsic activity: modulation of AC-activity compared to full agonist CP-55,940
[4] = target: cannabinoid type-1 receptors (Mus musculus, UniProt P47746); details: read-out: [3H]CP binding Ki, ref Brents et al., 2011; cited from earlier work
[5] = after oral delivery, plasma; ref Al-Ghananeem et al., 2007; cited from earlier work
[6] = up to a dose of 120 mg/kg; ref Geng et al., 2009; cited from earlier work

Chain of cannabinoid type-1 receptors endogenously expressed in Neuro2A cells (P47746 whole entry): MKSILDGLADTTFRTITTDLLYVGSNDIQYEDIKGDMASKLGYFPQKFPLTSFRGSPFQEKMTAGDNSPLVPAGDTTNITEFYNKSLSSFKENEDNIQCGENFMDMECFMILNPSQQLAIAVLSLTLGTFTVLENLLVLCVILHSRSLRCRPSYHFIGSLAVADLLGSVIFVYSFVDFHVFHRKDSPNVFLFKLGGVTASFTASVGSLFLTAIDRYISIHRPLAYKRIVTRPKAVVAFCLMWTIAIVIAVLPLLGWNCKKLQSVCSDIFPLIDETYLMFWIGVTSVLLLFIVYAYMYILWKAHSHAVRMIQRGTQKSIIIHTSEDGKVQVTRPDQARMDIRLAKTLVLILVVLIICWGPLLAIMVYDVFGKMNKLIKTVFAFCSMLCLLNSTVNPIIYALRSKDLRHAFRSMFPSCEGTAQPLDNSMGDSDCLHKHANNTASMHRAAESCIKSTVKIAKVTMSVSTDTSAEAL
Chain of human cannabinoid type-2 receptors stably expressed in CHO-hCB2 cells (P34972 whole entry): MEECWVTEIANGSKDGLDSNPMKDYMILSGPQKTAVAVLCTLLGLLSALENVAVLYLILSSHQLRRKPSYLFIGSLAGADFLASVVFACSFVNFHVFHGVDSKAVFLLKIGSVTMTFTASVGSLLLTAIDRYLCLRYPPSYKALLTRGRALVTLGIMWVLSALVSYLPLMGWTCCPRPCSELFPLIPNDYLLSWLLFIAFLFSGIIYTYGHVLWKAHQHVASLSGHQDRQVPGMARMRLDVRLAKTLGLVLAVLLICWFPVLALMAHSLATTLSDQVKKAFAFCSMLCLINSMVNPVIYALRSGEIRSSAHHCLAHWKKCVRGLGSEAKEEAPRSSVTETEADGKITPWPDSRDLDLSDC
Chain of human cannabinoid type-2 receptors (P34972 whole entry): as above
Chain of cannabinoid type-1 receptors (P47746 whole entry): as the sequence (P47746 whole entry) above

Row | Structure (SMILES) | Selectivity CB1/CB2 [1] | CB1R intrinsic activity [2] | effect on intracellular cAMP compared to basal levels ([2]; screen, Neuro2A cells) | intrinsic activity from full concentration-effect curves ([3]; CHO-hCB2 cells) | Adenylyl Cyclase Inhibition Imax (% Inhibition) ([3]; concentration-effect curve, intact CHO-hCB2 cells, negative = increase in cAMP) | CB2R intrinsic activity [3] | reduction in intracellular cAMP levels when administered alone ([2]; EC90 concentration (10 nM), Neuro2A cells) | Adenylyl Cyclase Inhibition Imax (% Inhibition) ([2]; concentration-effect curve, intact Neuro2A cells, 10 μM forskolin) | decrease in intracellular cAMP levels ([2]; screen, 1 μM, Neuro2A cells) | Ki [4] | selectivity for binding to cannabinoid type-2 relative to type-1 receptors [1] | AUC [5] | average Cmax [5] | acute toxicity [6] | increase in cAMP concentrations above basal levels ([3]; screen, 10 μM, CHO-hCB2 cells)
1 | O=C1/C(=C/c2cn(Cc3ccc(Cl)cc3)c3ccccc23)N2CCC1CC2 [Compound 1] | 1.56 | Neutral Antagonist | did not significantly alter cAMP concentrations | full agonists | 63.0 ± 5.2^a,b % Inhibition | Agonist | – | – | – | – | – | – | – | – | –
2 | CCCCCCC(C)(C)c1ccc([C@@H]2C[C@H](O)CC[C@H]2CCCO)c(O)c1 [CP-55,940, reference compound] | – | Agonist | – | – | – | – | 45.7 +/− 3.7% | 42.4±3.8 % Inhibition and 42.4 ± 3.8^a % Inhibition | 64.1 +/− 1.6% | 0.26 ± 0.1 nM | – | – | – | – | –
3 | OC1/C(=C/c2cn(Cc3ccccc3)c3ccccc23)N2CCC1CC2 (centres unmarked) [Compound 8, (Z)-2-((1-benzyl-1H-indol-3-yl)methylene)quinuclidin-3-ol] | – | Neutral Antagonist | did not significantly alter cAMP concentrations | – | – | Agonist | – | – | – | – | 10 fold | 3561 ± 670 ng·kg·min/mL/mg | 1,710 ± 503 ng/ml | did not produce any acute toxicity | –
4 | COC(=O)c1ccc(Cn2cc(/C=C3/C(=O)C4CCN3CC4)c3ccccc32)cc1 [Compound 4] | 1.62 | Inverse Agonist | significant elevations in intracellular cAMP above basal levels | – | – | Inverse Agonist | – | – | – | – | – | – | – | – | 278 +/− 38.6%
